The text below walks through data of patent publication US12396458B2, “Fused ring substituted aromatic compound and preparation method therefor, herbicidal composition, and use thereof” (Qingdao Kingagroot Chemical Compound Co., Ltd., priority 2020, dated 2025).

SMILES strings stand for the structures.

Holding throughout (experiment): Weeding effect in post-emergence stage (greenhouse pot test)
Common to all, as to assay type: in vivo

One test concerns Capsella bursa-pastoris. The following applies: 3 weeks after application, fresh weight control rate. An excerpt:
(§1) The activity level criteria for plant damage (i.e., growth control rate) are as follows:
(§2) Level 5: growth control rate is above 85%; • Level 4: growth control rate is greater than or equal to 60% and less than 85%; • Level 3: growth control rate is greater than or equal to 40% and less than 60%; • Level 2: growth control rate is greater than or equal to 20% and less than 40%; • Level 1: growth control rate is greater than or equal to 5% and less than 20%; • Level 0: growth control rate is less than 5%.
(§3) The above growth control rates are fresh weight control rates.
(§4) Experiment on weeding effect in post-emergence stage:
(§5) Monocotyledonous and dicotyledonous weed seeds (Descurainia sophia, Capsella bursa-pastoris, Abutilon theophrasti, Galium aparine, Stellaria media, Lithospermum arvense, Rorippa indica, Alopecurus aequalis, Alopecurus japonicus, Eleusine indica, Beckmannia syzigachne, Sclerochloa dura, Phleum paniculatum, Veronica didyma Tenore, Bromus japonicus, Aegilops tauschii, Phalaris arundinacea, Amaranthus retrojlexus, Chenopodiaceae, Commelina communis, Sonchus arvensis, convolvulus arvensis, Cirsium setosum, Solanum nigrum, Acalypha australis, Digitaria sanguinalis, Echinochloa crusgalli, Setaria viridis, Setaria glauca, Leptochloa chinensis, Monochoria vaginalis, Sagittaria trifolia, Scirpus juncoides, Cyperus rotundus, Cyperus iria, Cyperus difformis, Fimbristylis, Portulaca oleracea, Xanthium sibiricum, Pharbitis nil, Conyza japonica, etc.) and major crop seeds (wheat, corn, rice, soybean, cotton, oilseed rape, millet, sorghum, potato, sesame, ricinus, etc.) were placed in plastic pots filled with soil, then covered with 0.5-2 cm of soil, allowed to grow in a good greenhouse environment. After 2 weeks of sowing, the test plants were treated in the 2-3 leaf stage. The tested compounds of the present invention were respectively dissolved in acetone, then added with Tween 80 and 1.5 liter/ha of emulsifiable concentrate of methyl oleate as synergist, diluted with a certain amount of water to obtain a solution with a certain concentration, and sprayed with a spray tower onto the plants. After the application, the plants were cultured for 3 weeks in the greenhouse, and then the experimental results of the weeding were counted. The doses of the used compounds were 500, 250, 125, 60, 15, 7.5 g a.i./ha, and the averages were obtained by repeating for three times.

The test system of a further test is Conyza japonica. As to conditions: post-emergence, 3 weeks after application, fresh weight control rate.
Text: as §1, §2, §3, §4, §5

Another test concerns Alopecurus japonicus. As to conditions: dose 15 g a.i./ha, 3 weeks after application, fresh weight control rate.
Text: as §1, §2, §3, §4, §5

Turning to `Cn1c(C(F)(F)F)cc(=O)n(-c2cc(C3=NOC4(C(=O)OCc5ccccc5F)CCCC34)c(Cl)cc2F)c1=O` (stereo not drawn) [Compound 264], the “Activity level (growth control rate), Capsella bursa-pastoris” value (from here on “Activity level … Capsella bursa-pastoris”) with Capsella bursa-pastoris (dose 15 g a.i./ha) is 5 (Level 5: growth control rate is above 85%). Further, the “Activity level (growth control rate), Conyza japonica” value (shortened to “Activity level … Conyza japonica”) in the test on Conyza japonica (dose 15 g a.i./ha) is 4 (Level 4: growth control rate is greater than or equal to 60% and less than 85%).

As to `CCSC(=O)C12CCCC1C(c1cc(-n3c(=O)cc(C(F)(F)F)n(C)c3=O)c(F)cc1Cl)=NO2` (stereo not drawn) [Compound 334], in the test on Capsella bursa-pastoris (dose 15 g a.i./ha), the “Activity level … Capsella bursa-pastoris” value is 5 (Level 5: growth control rate is above 85%). Further, the “Activity level … Conyza japonica” value with Conyza japonica (dose 15 g a.i./ha) is 4 (Level 4: growth control rate is greater than or equal to 60% and less than 85%). In the case of `COC(=O)C12CCCC1C(c1cc(-c3ncc(C(F)(F)F)c(C)c3Cl)c(F)cc1Cl)=NO2` (stereo not drawn) [Compound 586], the “Activity level … Capsella bursa-pastoris” value with Capsella bursa-pastoris (dose 125 g a.i./ha) is given as 5 (Level 5: growth control rate is above 85%). In addition, in the test with Conyza japonica (dose 125 g a.i./ha), the “Activity level … Conyza japonica” value is 5 (Level 5: growth control rate is above 85%). For `COC(=O)C12CCC(O)C1C(c1cc(-n3c(=O)cc(C(F)(F)F)n(C)c3=O)c(F)cc1Cl)=NO2` (stereo not drawn) [Compound 444], in the test on Capsella bursa-pastoris (dose 15 g a.i./ha), the “Activity level … Capsella bursa-pastoris” value is 5 (Level 5: growth control rate is above 85%). Further, the “Activity level (growth control rate), Alopecurus japonicus” value with Alopecurus japonicus was 4 (Level 4: growth control rate is greater than or equal to 60% and less than 85%).

`COC(=O)C12CCCC1(O)C(c1cc(-n3c(=O)cc(C(F)(F)F)n(C)c3=O)c(F)cc1Cl)=NO2` (stereo not drawn) [Compound 351]: the “Activity level … Conyza japonica” value with Conyza japonica (dose 15 g a.i./ha) is 4 (Level 4: growth control rate is greater than or equal to 60% and less than 85%). As to `COC(=O)C12CCCC1C(c1cc(-c3c(Cl)c(C(F)(F)F)n(C)c3Cl)c(F)cc1Cl)=NO2` (stereo not drawn) [Compound 588], the “Activity level … Capsella bursa-pastoris” value with Capsella bursa-pastoris (dose 125 g a.i./ha) is given as 5 (Level 5: growth control rate is above 85%). `COC(=O)C12CCCC1C(c1cc(-n3c(=O)cc(C(F)(F)F)n(C)c3=S)c(F)cc1Cl)=NO2` (stereo not drawn) [Compound 497]: the “Activity level … Capsella bursa-pastoris” value in the test with Capsella bursa-pastoris (dose 15 g a.i./ha) is 5 (Level 5: growth control rate is above 85%). For `COC(=O)C12CCCC1C(c1cc(-n3c(=O)cc(C(F)(F)F)n(C)c3=O)c(F)cc1C(F)(F)F)=NO2` (stereo not drawn) [Compound 211], the “Activity level … Capsella bursa-pastoris” value in the test on Capsella bursa-pastoris (dose 15 g a.i./ha) was 5 (Level 5: growth control rate is above 85%). In the test on Conyza japonica (dose 15 g a.i./ha), the “Activity level … Conyza japonica” value is on record as 5 (Level 5: growth control rate is above 85%). For `CCCNC(=O)C12CCCC1C(c1cc(N3C(=O)C(=O)N(CCC)C3=S)c(F)cc1Cl)=NO2` (stereo not drawn) [Compound 553], the “Activity level … Capsella bursa-pastoris” value with Capsella bursa-pastoris (dose 15 g a.i./ha) is 5 (Level 5: growth control rate is above 85%).

As to `COC(=O)C12CCCCCC1C(c1cc(-n3c(=O)cc(C(F)(F)F)n(C)c3=O)c(F)cc1Cl)=NO2` (stereo not drawn) [Compound 435], the “Activity level … Capsella bursa-pastoris” value with Capsella bursa-pastoris (dose 15 g a.i./ha) was 5 (Level 5: growth control rate is above 85%). In the case of `COC(=O)C12CCCC1C(c1cc(-c3ncc(S(C)(=O)=O)cc3Cl)c(F)cc1Cl)=NO2` (stereo not drawn) [Compound 584], the “Activity level … Capsella bursa-pastoris” value with Capsella bursa-pastoris (dose 125 g a.i./ha) is given as 5 (Level 5: growth control rate is above 85%). Also, the “Activity level … Conyza japonica” value with Conyza japonica (dose 125 g a.i./ha) is recorded as 5 (Level 5: growth control rate is above 85%). Regarding `O=C1C2CC=CCC2C(=O)N1c1cc(C2=NOC3(C(=O)O)CCCC23)c(Cl)cc1F` (stereo not drawn) [Compound 546], in the test with Capsella bursa-pastoris (dose 125 g a.i./ha), the “Activity level … Capsella bursa-pastoris” value was 5 (Level 5: growth control rate is above 85%). Consider `COC(=O)C12CCCC1C(c1cc(-c3nnc(C(F)(F)F)cc3O)c(F)cc1Cl)=NO2` (stereo not drawn) [Compound 577], for which the “Activity level … Capsella bursa-pastoris” value in the test on Capsella bursa-pastoris (dose 125 g a.i./ha) was 5 (Level 5: growth control rate is above 85%). Also, the “Activity level … Conyza japonica” value in the test on Conyza japonica (dose 125 g a.i./ha) is listed as 5 (Level 5: growth control rate is above 85%). Regarding `COC(=O)C12CCCC1C(c1cc(-n3c(=O)n(C)c(=S)n(C)c3=S)c(F)cc1Cl)=NO2` (stereo not drawn) [Compound 395], the “Activity level … Capsella bursa-pastoris” value in the test on Capsella bursa-pastoris (dose 125 g a.i./ha) is 5 (Level 5: growth control rate is above 85%). Still for that read-out and setting: the figure for `COC(=O)C12CCCC1C(c1cc(-c3cc(C(F)(F)F)nn3C)c(F)cc1Cl)=NO2` (stereo not drawn) [Compound 589] is 5 (Level 5: growth control rate is above 85%); for `COC(=O)C12CCCCC1C(c1cc(-n3c(=O)cc(C(F)(F)F)n(C)c3=O)c(F)cc1Cl)=NO2` (stereo not drawn) [Compound 370] it is 5 (Level 5: growth control rate is above 85%). For the molecule `COC(=O)C12CCCC1C(c1cc(/N=c3\scc(C(F)(F)F)n3C)c(F)cc1Cl)=NO2` (stereo not drawn) [Compound 574], the “Activity level … Capsella bursa-pastoris” value with Capsella bursa-pastoris (dose 15 g a.i./ha) is listed as 5 (Level 5: growth control rate is above 85%). Further, the “Activity level … Conyza japonica” value with Conyza japonica (dose 15 g a.i./ha) is 5 (Level 5: growth control rate is above 85%). Turning to `COC(=O)C12CCCC1C(c1cc(-n3c(=O)c4ccccc4n(C)c3=O)c(F)cc1Cl)=NO2` (stereo not drawn) [Compound 551], the “Activity level … Capsella bursa-pastoris” value in the test with Capsella bursa-pastoris (dose 125 g a.i./ha) is recorded as 5 (Level 5: growth control rate is above 85%). In the case of `COC(=O)C12CCCC1C(c1cc(-n3c(=O)cc(C(F)(F)F)n(C)c3=O)c(F)cc1C#N)=NO2` (stereo not drawn) [Compound 212], the “Activity level … Capsella bursa-pastoris” value in the test with Capsella bursa-pastoris (dose 15 g a.i./ha) is 5 (Level 5: growth control rate is above 85%). Further, in the test with Conyza japonica (dose 15 g a.i./ha), the “Activity level … Conyza japonica” value is listed as 5 (Level 5: growth control rate is above 85%).

As to `COC(=O)C12CCCC1C(c1cc(N3C(=O)C4CCCCC4C3=O)c(F)cc1Cl)=NO2` (stereo not drawn) [Compound 545], in the test on Capsella bursa-pastoris (dose 125 g a.i./ha), the “Activity level … Capsella bursa-pastoris” value is recorded as 5 (Level 5: growth control rate is above 85%). On to `CCOC(=O)C12ON=C(c3cc(-n4c(=O)cc(C(F)(F)F)n(C)c4=O)c(F)cc3Cl)C1CCC2F` (stereo not drawn) [Compound 472], for which, in the test with Capsella bursa-pastoris (dose 15 g a.i./ha), the “Activity level … Capsella bursa-pastoris” value is recorded as 5 (Level 5: growth control rate is above 85%). The “Activity level … Conyza japonica” value with Conyza japonica (dose 15 g a.i./ha) was 4 (Level 4: growth control rate is greater than or equal to 60% and less than 85%).

Regarding `COC(=O)C12CCCC1C(c1cc(NC(=O)C3=C(C(=O)O)CCCC3)c(F)cc1Cl)=NO2` (stereo not drawn) [Compound 597], in the test with Capsella bursa-pastoris (dose 15 g a.i./ha), the “Activity level … Capsella bursa-pastoris” value is on record as 5 (Level 5: growth control rate is above 85%). Besides, the “Activity level … Conyza japonica” value in the test on Conyza japonica (dose 15 g a.i./ha) was 4 (Level 4: growth control rate is greater than or equal to 60% and less than 85%).

Consider `CCCN1C(=O)C(=O)N(c2cc(C3=NOC4(C(=O)OC)CCCC34)c(Cl)cc2F)C1=S` (stereo not drawn) [Compound 552], for which, in the test on Capsella bursa-pastoris (dose 125 g a.i./ha), the “Activity level … Capsella bursa-pastoris” value was 5 (Level 5: growth control rate is above 85%). For `COC(=O)C12CCCC1C(c1cc(-n3c(=O)cc(C(F)(F)F)n(C)c3=O)c(Cl)cc1Cl)=NO2` (stereo not drawn) [Compound 440], the “Activity level … Capsella bursa-pastoris” value in the test with Capsella bursa-pastoris (dose 15 g a.i./ha) is reported as 5 (Level 5: growth control rate is above 85%). Take `COC(=O)C12CCCC1C(c1cc(N3C(=O)CC(=C(C)C)C3=O)c(F)cc1Cl)=NO2` (stereo not drawn) [Compound 544]: in the test on Capsella bursa-pastoris (dose 125 g a.i./ha), the “Activity level … Capsella bursa-pastoris” value is recorded as 5 (Level 5: growth control rate is above 85%). Still for that read-out and setting: the value for `COC(=O)C12CCCC1C(c1cc(-c3c(Br)c(C(F)(F)F)nn3C)c(F)cc1Cl)=NO2` (stereo not drawn) [Compound 590] was 5 (Level 5: growth control rate is above 85%); that for `COC(=O)C12CCCC1C(c1cc(-c3cc(C(F)(F)F)n(C)c3)c(F)cc1Cl)=NO2` (stereo not drawn) [Compound 587] was 5 (Level 5: growth control rate is above 85%). For the molecule `CCOC(=O)C12ON=C(c3cc(-n4c(=O)cc(C(F)(F)F)n(C)c4=O)c(F)cc3Cl)C1CCC2=NO` (stereo not drawn) [Compound 491], the “Activity level … Capsella bursa-pastoris” value in the test with Capsella bursa-pastoris (dose 15 g a.i./ha) is 5 (Level 5: growth control rate is above 85%). `COC(=O)C12CC(C)CC1C(c1cc(-n3c(=O)cc(C(F)(F)F)n(C)c3=O)c(F)cc1Cl)=NO2` (stereo not drawn) [Compound 456]: in the test with Capsella bursa-pastoris (dose 15 g a.i./ha), the “Activity level … Capsella bursa-pastoris” value is listed as 5 (Level 5: growth control rate is above 85%). Moreover, in the test with Conyza japonica (dose 15 g a.i./ha), the “Activity level … Conyza japonica” value was 4 (Level 4: growth control rate is greater than or equal to 60% and less than 85%). With `COC(=O)C12CSCC1C(c1cc(-n3c(=O)cc(C(F)(F)F)n(C)c3=O)c(F)cc1Cl)=NO2` (stereo not drawn) [Compound 374], the “Activity level … Capsella bursa-pastoris” value in the test on Capsella bursa-pastoris (dose 125 g a.i./ha) was 5 (Level 5: growth control rate is above 85%). The “Activity level … Conyza japonica” value in the test on Conyza japonica (dose 125 g a.i./ha) was 5 (Level 5: growth control rate is above 85%). As to `COC(=O)C12CCCC1C(c1cc(-n3nc4n(c3=O)CCCC4)c(F)cc1Cl)=NO2` (stereo not drawn) [Compound 561], in the test with Capsella bursa-pastoris (dose 125 g a.i./ha), the “Activity level … Capsella bursa-pastoris” value is 5 (Level 5: growth control rate is above 85%). On to `COC(=O)C12CCCC1C(c1cc(N3C(=O)CC(C)CC3=O)c(F)cc1Cl)=NO2` (stereo not drawn) [Compound 547], for which the “Activity level … Capsella bursa-pastoris” value in the test on Capsella bursa-pastoris (dose 125 g a.i./ha) is 5 (Level 5: growth control rate is above 85%).
